Experimental data published in ChEMBL document CHEMBL3727357, “Compositions and methods for inhibiting g protein signaling” (2010).
Each block holds one compound with its values, some of them ahead of it. Calls of active or inactive are those of the source. No cut-off for these calls is given here.

Tests used:
Mus musculus [1] = species: Mus musculus; experiment: Inhibition of Gbetagamma-GRK2 interaction in mouse cardiomyocytes assessed as increase in contractility; type: cell-based
HL-60 [2] = experiment: Binding affinity to Gbetagamma in differentiated human HL60 cells assessed as inhibition of fMLP-stimulated Rac1 activation at 10 uM preincubated for 10 mins followed by fMLP challenge for 90 secs by Western blot analysis; type: cell-based
Mus musculus [3] = species: Mus musculus; experiment: Inhibition of Gbetagamma-GRK2 interaction in mouse cardiomyocytes assessed as increase in isoproterenol-induced contractility; type: cell-based
HL-60 [4] = experiment: Antiinflammatory activity in differentiated human HL60 cells assessed as inhibition of fMLP-stimulated cell migration at 10 uM after 1 hr by Boyden chamber method; type: functional, cell-based
Mus musculus [5] = experiment: Antiinflammatory activity in Swiss-Webster mouse carrageenan-induced paw edema model assessed as reduction of paw exudate volume at 2.5 mg/kg, ip administered 1 hr followed by carrageenan challenge; type: functional, organism-based
Mus musculus [6] = experiment: Antiinflammatory activity in Swiss-Webster mouse assessed as inhibition of carrageenan-induced paw edema at 2.5 mg/kg, ip administered 1 hr followed by carrageenan challenge measured 3 times every 2 hrs; type: functional, organism-based
Mus musculus [7] = experiment: Antiinflammatory activity in Swiss-Webster mouse carrageenan-induced paw edema model assessed as inhibition of neutrophils recruitment in edematous fluid at 2.5 mg/kg, ip administered 1 hr followed by carrageenan challenge; type: functional, organism-based
HL-60 [8] = experiment: Effect on fMLP-stimulated ERK1/2 phosphorylation in human HL60 cells at 10 uM incubated for 5 mins prior to fMLP stimulation by Western blot analysis; type: functional, cell-based
HL-60 [9] = experiment: Binding affinity to Gbetagamma in human HL60 cells assessed as inhibition of fMLP-stimulated GFP-PHAkt translocation to plasma membrane at 10 uM incubated for 5 mins prior to fMLP stimulation by Western blot analysis; type: cell-based
HL-60 [10] = experiment: Binding affinity to Gbetagamma in human HL60 cells assessed as inhibition of fMLP-stimulated Ca2+ release at 10 uM incubated for 5 mins prior to fMLP stimulation by Fura2-AM dye-based assay; type: cell-based
[11] = molecular target: T1, Guanine nucleotide-binding protein G(I)/G(S)/G(T) subunit beta-1/gamma-2 (Homo sapiens, UniProt P62873+P59768); experiment: Inhibition of SIGKAFKILGYPDYD binding to biotinylated Gbeta1gamma2 (unknown origin) at 300 uM incubated for 1 hr by phage ELISA; type: protein-complex assay
Target sequence in this assay (P59768 2-71 partner limits assumed): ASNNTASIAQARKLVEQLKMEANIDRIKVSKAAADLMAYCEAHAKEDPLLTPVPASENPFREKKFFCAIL
Target sequence in this assay (P62873 2-340 limits assumed): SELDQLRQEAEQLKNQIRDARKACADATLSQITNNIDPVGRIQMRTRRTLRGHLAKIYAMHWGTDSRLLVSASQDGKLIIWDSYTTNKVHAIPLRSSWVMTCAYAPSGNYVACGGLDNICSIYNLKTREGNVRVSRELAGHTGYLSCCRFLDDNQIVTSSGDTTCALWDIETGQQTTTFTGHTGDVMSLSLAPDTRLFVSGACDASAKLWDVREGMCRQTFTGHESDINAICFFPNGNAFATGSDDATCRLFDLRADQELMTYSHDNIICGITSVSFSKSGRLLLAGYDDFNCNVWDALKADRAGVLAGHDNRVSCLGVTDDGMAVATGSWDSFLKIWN

[12] = molecular target: T1, Guanine nucleotide-binding protein G(I)/G(S)/G(T) subunit beta-1/gamma-2; experiment: (§1) Inhibition of SIGKAFKILGYPDYD binding to biotinylated Gbeta1gamma2 (unknown origin) incubated for 1 hr by phage ELISA; type: protein-complex assay
Target sequence in this assay (P59768 2-71 partner limits assumed): as the sequence (P59768 2-71 partner limits assumed) above
Target sequence in this assay (P62873 2-340 limits assumed): as the sequence (P62873 2-340 limits assumed) above

[13] = molecular target: T1, Guanine nucleotide-binding protein G(I)/G(S)/G(T) subunit beta-1/gamma-2; experiment: Inhibition of biotinylated Gbeta1gamma2 (unknown origin)-mediated PLCbeta2 activation incubated for 16 hrs; type: protein-complex assay
Target sequence in this assay (P59768 2-71 limits assumed): as the sequence (P59768 2-71 partner limits assumed) above
Target sequence in this assay (P62873 2-340 limits assumed): as the sequence (P62873 2-340 limits assumed) above

[14] = molecular target: T1, Guanine nucleotide-binding protein G(I)/G(S)/G(T) subunit beta-1/gamma-2; experiment: Inhibition of biotinylated Gbeta1gamma2 (unknown origin)-mediated PLCbeta3 activation incubated for 16 hrs; type: protein-complex assay
Target sequence in this assay (P59768 2-71 limits assumed): as the sequence (P59768 2-71 partner limits assumed) above
Target sequence in this assay (P62873 2-340 limits assumed): as the sequence (P62873 2-340 limits assumed) above

[15] = molecular target: Guanine nucleotide-binding protein G(I)/G(S)/G(T) subunit beta-1/gamma-2 (Homo sapiens, UniProt P59768+P62873); experiment: as §1; type: protein-complex assay
Sequence of Guanine nucleotide-binding protein G(I)/G(S)/G(T) subunit beta-1/gamma-2 (Homo sapiens, UniProt P59768+P62873) (P59768 2-71 partner limits assumed): as the sequence (P59768 2-71 partner limits assumed) above
Sequence of Guanine nucleotide-binding protein G(I)/G(S)/G(T) subunit beta-1/gamma-2 (Homo sapiens, UniProt P59768+P62873) (P62873 2-340 limits assumed): as the sequence (P62873 2-340 limits assumed) above

SMILES: O=C(O)C1CCCCC1c1c2ccc(=O)cc-2oc2cc(O)ccc12 (centres undefined)
inhibition (Mus musculus [1]): inactive | inhibition (HL-60 [2]): inactive | inhibition (Mus musculus [3]): inactive | inhibition (HL-60 [4]): inactive

SMILES: COc1ccc2c(c1)c(CC(=O)O)c(C)n2C(=O)c1ccc(Cl)cc1
Activity (Mus musculus [5]): Active | inhibition (Mus musculus [6]): Active | inhibition (Mus musculus [7]): Active

SMILES: O=C(O)C1CC23C(Cl)C(Cl)C(Cl)C(Cl)C2(CC1c1c2ccc(=O)c(O)c-2oc2c(O)c(O)ccc12)C3(Cl)Cl (centres undefined)
Activity (HL-60 [8]): inactive | inhibition (HL-60 [9]): Active | inhibition (HL-60 [10]): Active

SMILES: Ic1ccc2c(c1)N(c1ccccc1)c1cc(Nc3ccc4nc5ccc(I)cc5[n+](-c5ccccc5)c4c3)ccc1N2
IC50 [13]: Not Active | IC50 [14]: Not Active

SMILES: CC1C2C=CC1C(c1c3ccc(=O)cc-3oc3cc(O)ccc13)C2C(=O)O (centres undefined)
IC50 [15]: 14 µM

The next lines start with the values.

inhibition [11]: inactive | inhibition [12]: inactive
SMILES: Cc1c2ccc(=O)cc-2oc2cc(O)ccc12

inhibition [11]: inactive | inhibition [12]: inactive
SMILES: O=C(O)c1ccc(-c2c3ccc(=O)cc-3oc3cc(O)ccc23)cc1

inhibition [11]: inactive | inhibition [12]: inactive
SMILES: Cc1c2cc(O)c(=O)cc-2oc2cc(O)c(O)cc12
